In patent US20050085413A1, “Dimeric pharmaceutical compounds and their use” (priority 2001, published 2005):
Converted amounts (≈) assume the structure as drawn. “And” between values parts separate entries of the source, which are not always exact repeats. Equal values may be shown once. Where a name gives a salt, the structure may show the parent alone.

Key:
[1] = system: A/Panama/2007/99 BVLV008 (H3N2); experiment: Plaque reduction assay (PRA) in MDCK cells; type: cell-based, influenza virus; conditions: plaque numbers reduced by 50%; for EC50: Influenza A virus, H3N2, MDCK, read-out: EC50 ng/ml PRA A/Pan
[2] = system: A/New Caledonia/20/99 BVLV008 (H1N1); experiment: Plaque reduction assay (PRA) in MDCK cells; type: cell-based, influenza virus; conditions: plaque numbers reduced by 50%; for EC50: Influenza A virus, H1N1, MDCK, read-out: EC50 ng/ml PRA A/New
B/Hong Kong/5/72 BVLV012 = experiment: Plaque reduction assay (PRA) in MDCK cells; type: cell-based, influenza virus; conditions: for EC50: MDCK, read-out: EC50 ng/ml PRA B/HongK
[3] = system: B/Yamanashi/166/98 BVLV007; experiment: Plaque reduction assay (PRA) in MDCK cells; type: cell-based, influenza virus; conditions: plaque numbers reduced by 50%; for EC50: unidentified influenza virus, MDCK, read-out: EC50 ng/ml PRA B/Yam, B/Yamanashi/166/98 BVLV007; for EC50 ng/ml PRA B/Yam: B/Yamanashi/166/98 BVLV007
[4] = system: A/Victoria/3/75 BVLV017 (H3N2); experiment: Plaque reduction assay (PRA) in MDCK cells; type: cell-based, influenza virus; conditions: plaque numbers reduced by 50%; for EC50: Influenza A virus, H3N2, MDCK, read-out: EC50 ng/ml PRA A/Vic
[5] = system: Escherichia coli ATTCC 25922; experiment: Kirby-Bauer disk test, zones of inhibition; type: cell-based; conditions: 30 μg/disk; for zone of inhibition at 30 µg/disc: Escherichia coli, ATTCC25922, read-out: diameter of zone of inhibition, Escherichia coli ATTCC 25922
Method: (§1) Antibiotic activities were determined using a standard Kirby-Bauer* test and are reported as diameters (in mm) of zones of inhibition for test strains. All compounds were spotted at 30 μg/disk.

[6] = system: Staphylococcus aureus ATCC 29213; experiment: Kirby-Bauer disk test, zones of inhibition; type: cell-based; conditions: 30 μg/disk; for zone of inhibition at 30 µg/disc: Staphylococcus aureus, ATCC29213, read-out: diameter of zone of inhibition, Staphylococcus aureus ATCC 29213
Method: as §1

[7] = system: Enterococcus faecalis ATCC 29212; experiment: Kirby-Bauer disk test, zones of inhibition; type: cell-based; conditions: 30 μg/disk; for zone of inhibition at 30 µg/disc: Enterococcus faecalis, ATCC29212, read-out: diameter of zone of inhibition, Enterococcus faecalis ATCC 29212
Method: as §1

[8] = system: Pseudomonas aeuruginosa ATCC 27853; experiment: Kirby-Bauer disk test, zones of inhibition; type: cell-based; conditions: 30 μg/disk; for zone of inhibition at 30 µg/disc: Pseudomonas, ATCC27853, read-out: diameter of zone of inhibition, Pseudomonas aeuruginosa ATCC 27853
Method: as §1

[9] = in vivo
Method: Rodents were anaesthetised with Ketamine/Domitor mixture according to standard procedures and dosed with compound of interest by the intra-nasal route at a dose volume of approximately 3.0 ml/kg. The rodent is held in the vertical position during dosing of 30 μL per nostril. At different time points, for example, 2, 8, 24, 48 and 168 hours post-dose, levels of compound in the lung tissue are assessed by analytical methods. Any analytical method suitable for detection of this type of compound may be used. The time at which levels of compound fall below the sensitivity of the analytical techniques identified will determine the residency time of the compound in lung tissue.

B/Victoria/1/67 = experiment: Plaque reduction assay (PRA) in MDCK cells; type: cell-based, influenza virus; conditions: plaque numbers reduced by 50%, bis(trifluoroacetic acid salt)
[10] = system: A/Sydney/5/97 BVLV015 (H3N2); experiment: Plaque reduction assay (PRA) in MDCK cells; type: cell-based, influenza virus; conditions: plaque numbers reduced by 50%; for EC50: Influenza A virus, MDCK, read-out: EC50 ng/ml PRA A/Syd
A/WSN/33 BVLV09 (H1N1) = experiment: Plaque reduction assay (PRA) in MDCK cells; type: cell-based, influenza virus; conditions: plaque numbers reduced by 50%; for EC50: Influenza A virus, MDCK, read-out: EC50 ng/ml PRA A/WSN
B/Harbin/7/95 BVLV008 = experiment: Plaque reduction assay (PRA) in MDCK cells; type: cell-based, influenza virus; conditions: read-out: EC50 ng/ml PRA B/Harb
[11] = system: A/Bayern/7/95 BVL006 (H1N1); experiment: Plaque reduction assay (PRA) in MDCK cells; type: cell-based; conditions: Influenza A virus, plaque numbers reduced by 50%, read-out: EC50 ng/ml PRA A/Bay

Compound: CCOC(=O)C1=C[C@@H](OC(CC)CC)[C@H](NC(C)=O)[C@@H](N)C1 [Oseltamivir]
- EC50 [1]: 0.3 ng/mL (≈ 0.00096 µM)
- EC50 [2]: 0.23 ng/mL (≈ 0.000736 µM)
- EC50 (B/Hong Kong/5/72 BVLV012): 32 ng/mL (≈ 0.102 µM)
- EC50 [3]: 0.7 ng/mL (≈ 0.00224 µM)
- EC50 [4]: 0.11 ng/mL (≈ 0.000352 µM)

Compound: NC[C@H]1O[C@H](O[C@H]2[C@H](O)[C@@H](O[C@H]3O[C@H](CO)[C@@H](O)[C@H](N)[C@H]3O)[C@H](N)C[C@@H]2N)[C@H](N)C[C@@H]1O [Tobramycin, reference compound]
- zone of inhibition at 30 µg/disc [5]: 18.4 mm
- zone of inhibition at 30 µg/disc [6]: 26.7 mm
- zone of inhibition at 30 µg/disc [7]: 15.7 mm
- zone of inhibition at 30 µg/disc [8]: 24.9 mm
- nmole retained per gram of mouse lung after 7 days [9]: 2.1 nmole per gram

Compound: Cc1cc(C)c(NC(=O)N2CCN(CC3OC(OC4C(N)CC(N)C(OC5OC(CN)C(O)CC5N)C4O)C(O)C(N)C3O)CC2)c(C)c1NC(=O)N1CCN(CC2OC(OC3C(N)CC(N)C(OC4OC(CN)C(O)CC4N)C3O)C(O)C(N)C2O)CC1 (stereo not drawn) [Compound 16]
- zone of inhibition at 30 µg/disc [5]: 6.5 mm
- zone of inhibition at 30 µg/disc [7]: 6.2 mm
- zone of inhibition at 30 µg/disc [8]: 10.1 mm
- nmole retained per gram of mouse lung after 7 days [9]: 2.8 nmole per gram

Compound: CC(=O)N[C@H]1[C@H]([C@H](OC(=O)NCCCCCCCCCCCCNC(=O)O[C@@H]([C@@H]2OC(C(=O)O)=C[C@H](NC(=N)N)[C@H]2NC(C)=O)[C@H](O)CO)[C@H](O)CO)OC(C(=O)O)=C[C@@H]1NC(=N)N.O=C(O)C(F)(F)F.O=C(O)C(F)(F)F [Example 2, (2R,3R,4S)-3-(acetylamino)-2-{(1R,20R,21R)-20-((2R,3R,4S)-3-(acetylamino)-4-{[amino(imino)methyl]amino}-6-carboxy-3,4-dihydro-2H-pyran-2-yl)-1-[(1R)-1,2-dihydroxyethyl]-21,22-dihydroxy-3,18-dioxo-2,19-dioxa-4,17-diazadocos-1-yl}-4-{[amino(imino)methyl]amino}-3,4-dihydro-2H-pyran-6-carboxylic acid bis(trifluoroacetic acid salt)]
- EC50 ng/ml PRA B/Vic (B/Victoria/1/67): 0.04 ng/mL and 0.05 ng/mL
- EC50 ng/ml PRA B/Yam [3]: <0.0001 ng/mL
- EC50 ng/ml PRA A/Syd [10]: <0.0001 ng/mL

Compound: NC1CC(O)C(CNC(=O)NCCCCCCCCCCCCNC(=O)NCC2OC(OC3C(N)CC(N)C(OC4OC(CO)C(O)C(N)C4O)C3O)C(N)CC2O)OC1OC1C(N)CC(N)C(OC2OC(CO)C(O)C(N)C2O)C1O (stereo not drawn) [Compound 18]
- zone of inhibition at 30 µg/disc [5]: 7.6 mm
- zone of inhibition at 30 µg/disc [7]: 6.2 mm
- zone of inhibition at 30 µg/disc [8]: 10.4 mm
- nmole retained per gram of mouse lung after 7 days [9]: 6.6 nmole per gram

Compound: CC(=O)N[C@H]1[C@H]([C@H](OC(=O)NCCCCCCCCCCCCCNC(=O)O[C@H](C(O)CO)[C@@H]2OC(C(=O)O)=C[C@H](NC(=N)N)[C@H]2NC(C)=O)[C@H](O)CO)OC(C(=O)O)=C[C@@H]1NC(=N)N (stereo partly drawn) [Example 4, (2R,3R,4S)-3-(acetylamino)-2-{(1R,21R,22R)-21-((2R,3R,4S)-3-(acetylamino)-4-{[amino(imino)methyl]amino}-6-carboxy-3,4-dihydro-2H-pyran-2-yl)-1-[(1R)-1,2-dihydroxyethyl]-22,23-dihydroxy-3,19-dioxo-2,20-dioxa-4,18-diazatricos-1-yl}-4-{[amino(imino)methyl]amino}-3,4-dihydro-2H-pyran-6-carboxylic acid bis(trifluoroacetic acid salt)]
- EC50 [1]: < 1e-05 ng/mL
- EC50 (A/WSN/33 BVLV09 (H1N1)): < 0.0001 ng/mL
- EC50 [2]: 0.043 ng/mL
- EC50 (B/Hong Kong/5/72 BVLV012): 0.06 ng/mL
- EC50 [3]: < 0.0001 ng/mL
- EC50 [10]: < 0.0001 ng/mL

Compound: NC12CC3CC(CC(C3)C1)C2 [Amantadine]
- EC50 [1]: 157 ng/mL (≈ 1.04 µM)
- EC50 [2]: 11 ng/mL (≈ 0.0727 µM)
- EC50 (B/Hong Kong/5/72 BVLV012): > 10000 ng/mL
- EC50 [3]: 2060 ng/mL (≈ 13.6 µM)
- EC50 [4]: 220 ng/mL (≈ 1.45 µM)

Compound: NCC1OC(OC2C(N)CC(N)C(OC3OC(CNC(=O)Nc4ccc(Cc5ccc(NC(=O)NCC6OC(OC7C(N)CC(N)C(OC8OC(CN)C(O)CC8N)C7O)C(O)C(N)C6O)cc5)cc4)C(O)C(N)C3O)C2O)C(N)CC1O (stereo not drawn) [Compound 13]
- zone of inhibition at 30 µg/disc [5]: 7.1 mm
- zone of inhibition at 30 µg/disc [6]: 8.6 mm
- zone of inhibition at 30 µg/disc [7]: 6.5 mm
- zone of inhibition at 30 µg/disc [8]: 8.9 mm

Compound: CC(=O)N[C@H]1[C@H]([C@H](OC(=O)NCCCCCCCCCCCCCCNC(=O)O[C@@H]([C@@H]2OC(C(=O)O)=C[C@H](NC(=N)N)[C@H]2NC(C)=O)[C@H](O)CO)[C@H](O)CO)OC(C(=O)O)=C[C@@H]1NC(=N)N.O=C(O)C(F)(F)F.O=C(O)C(F)(F)F [Example 3, (2R,3R,4S)-3-(acetylamino)-2-{(1R,22R,23R)-22-((2R,3R,4S)-3-(acetylamino)-4-{[amino(imino)methyl]amino}-6-carboxy-3,4-dihydro-2H-pyran-2-yl)-1-[(1R)-1,2-dihydroxyethyl]-23,24-dihydroxy-3,20-dioxo-2,21-dioxa-4,19-diazatetracos-1-yl}-4-{[amino(imino)methyl]amino}-3,4-dihydro-2H-pyran-6-carboxylic acid bis(trifluoroacetic acid salt)]
- EC50 ng/ml PRA B/HongK (B/Hong Kong/5/72 BVLV012; B/Hong Kong/5/72 BVLV012, plaque numbers reduced by 50%): <0.0001 ng/mL
- EC50 ng/ml PRA B/Vic (B/Victoria/1/67): 0.009 ng/mL and 0.01 ng/mL
- EC50 ng/ml PRA B/Yam [3]: <0.0001, <0.0001 ng/ml
- EC50 ng/ml PRA A/Vic [4]: 0.0023 ng/mL
- EC50 ng/ml PRA A/Syd [10]: 0.000429 ng/mL

Compound: CC(=O)N[C@H]1[C@H]([C@H](O)[C@H](O)CO)OC(C(=O)O)=C[C@@H]1NC(=N)N [Compound A]
- EC50 [1]: 2.7 ng/mL (≈ 0.00812 µM)
- EC50 ng/ml PRA A/Pan [1]: 3 ng/mL (≈ 0.00903 µM)
- EC50 (A/WSN/33 BVLV09 (H1N1)): 56 ng/mL (≈ 0.169 µM)
- EC50 ng/ml PRA A/WSN (A/WSN/33 BVLV09 (H1N1)): > 100 ng/mL
- EC50 [2]: 0.27 ng/mL (≈ 0.000812 µM)
- EC50 ng/ml PRA A/New [2]: 0.23 ng/mL (≈ 0.000692 µM)
- EC50 (B/Hong Kong/5/72 BVLV012): 21 ng/mL (≈ 0.0632 µM)
- EC50 (B/Harbin/7/95 BVLV008): 0.19 ng/mL (≈ 0.000572 µM)
- EC50 [4]: 5.5 ng/mL (≈ 0.0166 µM)
- EC50 [10]: 2.4 ng/mL (≈ 0.00722 µM)
- EC50 [11]: 35 ng/mL (≈ 0.105 µM)

Compound: NCC1OC(OC2C(N)CC(N)C(OC3OC(CN4CCN(C(=O)c5ccccc5-c5ccccc5C(=O)N5CCN(CC6OC(OC7C(N)CC(N)C(OC8OC(CN)C(O)CC8N)C7O)C(O)C(N)C6O)CC5)CC4)C(O)C(N)C3O)C2O)C(N)CC1O (stereo not drawn) [Compound 8]
- zone of inhibition at 30 µg/disc [5]: 11.4 mm
- zone of inhibition at 30 µg/disc [7]: 6.2 mm
- zone of inhibition at 30 µg/disc [8]: 12.1 mm
- nmole retained per gram of mouse lung after 7 days [9]: 4.6 nmole per gram

Compound: NCC1OC(OC2C(N)CC(N)C(OC3OC(COC(=O)NCCCCCCCCCCCCNC(=O)OCC4OC(OC5C(N)CC(N)C(OC6OC(CN)C(O)CC6N)C5O)C(O)C(N)C4O)C(O)C(N)C3O)C2O)C(N)CC1O (stereo not drawn) [Compound 1]
- zone of inhibition at 30 µg/disc [5]: 7 mm
- zone of inhibition at 30 µg/disc [6]: 8.9 mm
- zone of inhibition at 30 µg/disc [7]: 6 mm
- zone of inhibition at 30 µg/disc [8]: 6.3 mm

Compound: NCC1OC(OC2C(N)CC(N)C(OC3OC(CN4CCNCC4)C(O)C(N)C3O)C2O)C(N)CC1O (stereo not drawn) [Compound 5]
- zone of inhibition at 30 µg/disc [5]: 10.5 mm
- zone of inhibition at 30 µg/disc [6]: 18.6 mm
- zone of inhibition at 30 µg/disc [7]: 7.4 mm
- zone of inhibition at 30 µg/disc [8]: 13.8 mm
- nmole retained per gram of mouse lung after 7 days [9]: 0.8 nmole per gram

Compound: Neomycin [reference compound]
- diameter of zone of inhibition, Escherichia coli ATTCC 25922 [5]: 14.4 mm
- diameter of zone of inhibition, Staphylococcus aureus ATCC 29213 [6]: 16.8 mm
- diameter of zone of inhibition, Enterococcus faecalis ATCC 29212 [7]: 6.7 mm
- diameter of zone of inhibition, Pseudomonas aeuruginosa ATCC 27853 [8]: 7.1 mm
